Test system: KRAS patient-derived spheroids with HUVEC/MSC, viability
Assay: Anticancer human tumor 323965-272-R-J2-PDC patient-derived pancreatic carcinoma cell line growth inhibition [KRAS2]
Conditions: for viability, T/C: stronger effect = lower value; active means viability on the fitted dose curve at most 10% of control; inactive means the rest
Excerpt: Multicellular complex tumor spheroid response to RAS pathway inhibitors in combination with a targeted agents in patient-derived cell lines with oncogenic KRAS variants from multiple cancer types
A high-throughput screen of multi-cell type tumor spheroids was designed to identify active combinations of targeted small molecules and KRAS pathway inhibitors. Complex spheroids include a stromal component modeled by human endothelial cells (HUVEC) and fibroblasts modeled by human mesenchymal stem cells (MSCs). The concentration ranges selected for each drug and investigational agent were based upon clinically achievable concentrations if the clinical Cmax of the agent was known.
Compounds. The drugs and investigational agents: BI-3406 (NSC825286), BAY-293 (NSC824723), batoprotafib (TNO155; NSC825523), sotorasib (AMG 510; NSC818433), MRTX1257 (NSC819558), elimusertib (BAY 1895344; NSC800525), molibresib (GSK525762; NSC774829), temuterkib (LY3214996; NSC803410), venetoclax (NSC766270), alisertib (NSC759677), olaparib (NSC753686), talazoparib (NSC767125), erdafitinib (NSC781556), ipatasertib (NSC767898), cabozantinib (NSC761068), nintedanib (NSC756659), abemaciclib (NSC768073), docetaxel (NSC628503), trametinib (NSC758246), and sapanisertib (NSC764658) were obtained from the National Cancer Institute (NCI) Developmental Therapeutics Program Chemical Repository. The FDA-approved anticancer drug set is available from the Developmental Therapeutics Program. […] The stock solutions were prepared in dimethyl sulfoxide (DMSO, Sigma-Aldrich, St. Louis, MO, cat. D2650) at 800-fold the tested concentration and stored at -70 degrees C prior to their use. All drugs and investigational agents were tested over a range starting from a high concentration at or near the clinical Cmax and decreasing in half-log increments. If the clinical Cmax for an agent had not been determined, the highest concentration tested was 10 microM.
Cell Culture. All cells were maintained in an incubator at 37 degrees C and 5% CO2 with 95% humidity. The PDC lines were cultured according to standard operating procedures established by the NCI PDMR (https://pdmr.cancer.gov/sops/default.htm). Briefly, all PDCs were thawed and cultured in Matrigel-coated flasks prepared with a working solution of 1X Ham's F-12 nutrient mix, without supplementation (Invitrogen, Waltham, MA, cat. 11765054), 100 U/mL penicillin-streptomycin (Invitrogen, cat. 15140122), and 2.5% Matrigel (Corning Inc., Corning, NY, cat. 354248) for the first three passages. All PDCs were cultured in complete DMEM/F-12 media containing advanced DMEM/F-12 (Invitrogen, cat. 12634028), 4.9% defined fetal bovine serum, heat inactivated (HyClone Laboratories Inc., Logan, UT, cat. SH30070.03HI), 389 ng/mL hydrocortisone (Sigma-Aldrich, cat. H4001), 9.7 ng/mL human EGF recombinant protein (Invitrogen, cat. PHG0313), 23.4 microg/mL adenine (Sigma-Aldrich, cat. A2786), 97.3 U/mL penicillin-streptomycin (Invitrogen, cat. 15140122), 1.9 mM L-glutamine (Invitrogen, cat. 25030081), and 9.7 microM Y-27632 dihydrochloride (Tocris Bioscience, Bristol, United Kingdom, cat. 1254). The PDCs were cultured in complete DMEM/F12 media without 9.7 microM Y-27632 dihydrochloride for at least two passages prior to the screen. The established cell line HOP-62 was cultured in RPMI 1640 medium, HEPES (Invitrogen, cat. 22400105) with 10% defined fetal bovine serum (HyClone Laboratories Inc., cat. SH30070.03) and 2 mM L-glutamine (Invitrogen, cat. 25030081). The pooled donor HUVEC were cultured in endothelial cell growth medium 2 (PromoCell, Heidelberg, Germany, cat. C-22011) and the hMSC were cultured in mesenchymal stem cell growth medium 2 (PromoCell, cat. C-28009). For all experiments, HUVEC and hMSC were used at passages </=5, while the malignant cell lines were used at passages </=15. […]
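Further: spheroids exposed to agents for 7 days.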

CC(=O)OC12COC1CC(O)C1(C)C(=O)C(O)C3=C(C)C(OC(=O)C(O)C(NC(=O)OC(C)(C)C)c4ccccc4)CC(O)(C(OC(=O)c4ccccc4)C21)C3(C)C (configuration not stated)
< 10 nM: IC50 (curve of compound)
inactive: viability, T/C (compound 0.01 µM) 35.9% [middle of 5 runs] | viability, T/C (compound 0.0316 µM) 35.4% [middle of 5 runs] | viability, T/C (compound 0.1 µM) 32.5% [middle of 5 runs] | viability, T/C (compound 0.316 µM) 36.5% [middle of 5 runs] | viability, T/C (compound 1 µM) 34% [middle of 5 runs] | viability, T/C (compound 3.16 µM) 34.3% [middle of 5 runs]

C=CC(=O)N1CCN(c2nc(OCC3CCCN3C)nc3c2CCN(c2cccc4cccc(C)c24)C3)CC1CC#N (configuration not stated)
1.07 µM [middle of 5 runs]: IC50 (compound alone, run of 08/26/2021)
inactive: viability, T/C (compound 0.0316 µM) 70.1% [middle of 17 runs] | viability, T/C (compound 0.1 µM) 60.4% [middle of 17 runs] | viability, T/C (compound 1 µM) 57.9% [middle of 17 runs]
1.12 µM [middle of 6 runs]: IC50 (compound alone, run of 09/02/2021)

Cn1ncnc1[C@H]1c2n[nH]c(=O)c3cc(F)cc(c23)N[C@@H]1c1ccc(F)cc1 + C=CC(=O)N1CCN(c2nc(OCC3CCCN3C)nc3c2CCN(c2cccc4cccc(C)c24)C3)CC1CC#N
inactive: viability, T/C (second compound 0.0316 µM, first compound 0.000316 µM) 75.5% | viability, T/C (second compound 0.0316 µM, first compound 0.001 µM) 83.2% | viability, T/C (second compound 0.0316 µM, first compound 0.00316 µM) 73.7% | viability, T/C (second compound 0.0316 µM, first compound 0.01 µM) 71.2% | viability, T/C (second compound 0.0316 µM, first compound 0.0316 µM) 68.7% | viability, T/C (second compound 0.0316 µM, first compound 0.1 µM) 64% | viability, T/C (second compound 0.1 µM, first compound 0.000316 µM) 71.2% | viability, T/C (second compound 0.1 µM, first compound 0.001 µM) 62.3% | viability, T/C (second compound 0.1 µM, first compound 0.00316 µM) 62% | viability, T/C (second compound 0.1 µM, first compound 0.01 µM) 61.5% | viability, T/C (second compound 0.1 µM, first compound 0.0316 µM) 60.5% | viability, T/C (second compound 0.1 µM, first compound 0.1 µM) 53.8% | viability, T/C (second compound 0.316 µM, first compound 0.000316 µM) 64.2% | viability, T/C (second compound 0.316 µM, first compound 0.001 µM) 63.8% | viability, T/C (second compound 0.316 µM, first compound 0.00316 µM) 62.7% | viability, T/C (second compound 0.316 µM, first compound 0.01 µM) 60.4% | viability, T/C (second compound 0.316 µM, first compound 0.0316 µM) 56.1% | viability, T/C (second compound 0.316 µM, first compound 0.1 µM) 57.7% | viability, T/C (second compound 1 µM, first compound 0.000316 µM) 58.6% | viability, T/C (second compound 1 µM, first compound 0.001 µM) 65.5% | viability, T/C (second compound 1 µM, first compound 0.00316 µM) 59.6% | viability, T/C (second compound 1 µM, first compound 0.01 µM) 62.6% | viability, T/C (second compound 1 µM, first compound 0.0316 µM) 52.8% | viability, T/C (second compound 1 µM, first compound 0.1 µM) 57% | viability, T/C (second compound 3.16 µM, first compound 0.000316 µM) 12.5% | viability, T/C (second compound 3.16 µM, first compound 0.001 µM) 10.9% | viability, T/C (second compound 3.16 µM, first compound 0.00316 µM) 13.9% | viability, T/C (second compound 3.16 µM, first compound 0.01 µM) 11.5% | viability, T/C (second compound 3.16 µM, first compound 0.0316 µM) 12.4% | viability, T/C (second compound 3.16 µM, first compound 0.1 µM) 11.6%
> 100 nM: IC50 (curve of first compound, second compound 0.0316 µM) | IC50 (curve of first compound, second compound 0.1 µM) | IC50 (curve of first compound, second compound 0.316 µM) | IC50 (curve of first compound, second compound 1 µM)
< 0.316 nM: IC50 (curve of first compound, second compound 3.16 µM)

From PubChem BioAssay AID1963869 (Molecular Pharmacology Branch, DTP, NCI, 2024)
